These are literature values, as cited in US20200138710A1, “COMPOSITIONS WITH PERMEATION ENHANCERS FOR DRUG DELIVERY” (Children's Medical Center Corporation, priority 2016, published 2020).

Usually Log P stands for the decadic logarithm of the partition coefficient of the neutral form, usually between octanol and water. With `CC[C@H]1OC(=O)[C@H](C)[C@@H](O[C@H]2C[C@@](C)(OC)[C@@H](O)[C@H](C)O2)[C@H](C)[C@@H](O[C@@H]2O[C@H](C)C[C@H](N(C)C)[C@H]2O)[C@](C)(O)C[C@@H](C)CN(C)[C@H](C)[C@@H](O)[C@]1(C)O` [Azithromycin], the log partition coefficient (Log P) is 4.02. Regarding `CO/N=C(\C(=O)N[C@@H]1C(=O)N2C(C(=O)O)=C(CSc3nc(=O)c(=O)[nH]n3C)CS[C@H]12)c1csc(N)n1` [Ceftriaxone], the “Log P” value was −1.47. Regarding `CO/N=C(\C(=O)N[C@@H]1C(=O)N2C(C(=O)O)=C(COC(N)=O)CS[C@H]12)c1ccco1` [Cefuroxime], the “Log P” value is listed as −0.16.
